In ChEMBL document CHEMBL1149799, “Bioactive peroxides as potential therapeutic agents” (Eur J Med Chem, 2008):
Values after ≈ are worked out from the molar mass of the structure shown.

Key:
[1] = Cytotoxicity against human PLC/PRF/5 cells; format: functional; settings: read-out: ED50 (the source's name)
[2] = system: KB; experiment: Cytotoxicity against human KB cells; format: functional, cell-based; settings: Homo sapiens, KB; read-out: ED50 (the source's name)
[3] = system: MKN-7; experiment: Cytotoxicity against human MKN7 cells; format: functional, cell-based
[4] = system: SF-295; experiment: Cytotoxicity against human SF295 cells; format: functional, cell-based
[5] = system: MKN-74; experiment: Cytotoxicity against human MKN74 cells; format: functional, cell-based
[6] = Cytotoxicity against human BSY1 cells; format: functional, cell-based; settings: BSY-1
[7] = Cytotoxicity against human MKN1 cells; format: functional, cell-based; settings: MKN-1
[8] = system: HCC 2998; experiment: Cytotoxicity against human HCC2998 cells; format: functional, cell-based
[9] = system: MKN-28; experiment: Cytotoxicity against human MKN28 cells; format: functional, cell-based
[10] = system: MCF7; experiment: Cytotoxicity against human MCF7 cells; format: functional, cell-based; settings: Homo sapiens, MCF7
[11] = system: NCI-H226; experiment: Cytotoxicity against human NCI-H226 cells; format: functional, cell-based
[12] = system: NCI-H23; experiment: Cytotoxicity against human NCI-H23 cells; format: functional, cell-based
[13] = system: SF-268; experiment: Cytotoxicity against human SF268 cells; format: functional, cell-based; settings: Homo sapiens, SF-268; read-out: IC50
[14] = Cytotoxicity against human RXF63IL cells; format: functional, cell-based
[15] = system: DMS-114; experiment: Cytotoxicity against human DMS114 cells; format: functional, cell-based
[16] = system: MDA-MB-231; experiment: Cytotoxicity against human MDA-MB-231 cells; format: functional, cell-based
[17] = system: KM12; experiment: Cytotoxicity against human KM12 cells; format: functional, cell-based
[18] = system: OVCAR-8; experiment: Cytotoxicity against human OVCAR8 cells; format: functional, cell-based
[19] = system: SNB-78; experiment: Cytotoxicity against human SNB78 cells; format: functional, cell-based
[20] = system: A549; experiment: Cytotoxicity against human A549 cells; format: functional, cell-based; settings: Homo sapiens, A549
[21] = system: OVCAR-5; experiment: Cytotoxicity against human OVCAR5 cells; format: functional, cell-based
[22] = system: OVCAR-4; experiment: Cytotoxicity against human OVCAR4 cells; format: functional, cell-based
[23] = system: HCT-15; experiment: Cytotoxicity against human HCT15 cells; format: functional, cell-based
[24] = system: PC-3; experiment: Cytotoxicity against human PC3 cells; format: functional, cell-based; settings: Homo sapiens, PC-3
[25] = system: U-251; experiment: Cytotoxicity against human U251 cells; format: functional, cell-based
[26] = system: OVCAR-3; experiment: Cytotoxicity against human OVCAR-3 cells; format: functional, cell-based
[27] = system: LOX IMVI; experiment: Cytotoxicity against human LOXI MVI cells; format: functional, cell-based
[28] = system: NCI-H460; experiment: Cytotoxicity against human NCI-H460 cells; format: functional, cell-based; settings: Homo sapiens, NCI-H460
[29] = system: MKN-45; experiment: Cytotoxicity against human MKN45 cells; format: functional, cell-based
[30] = Cytotoxicity against human HBC4 cells; format: functional, cell-based
[31] = system: SF-539; experiment: Cytotoxicity against human SF539 cells; format: functional, cell-based
[32] = Cytotoxicity against human HBC5 cells; format: functional, cell-based
[33] = system: HCT-116; experiment: Cytotoxicity against human HCT116 cells; format: functional, cell-based
[34] = system: ACHN; experiment: Cytotoxicity against human ACHN cells; format: functional, cell-based
[35] = system: SNB-75; experiment: Cytotoxicity against human SNB75 cells; format: functional, cell-based
[36] = system: DU-145; experiment: Cytotoxicity against human DU145 cells; format: functional, cell-based; settings: Homo sapiens, DU-145
[37] = system: SK-OV-3; experiment: Cytotoxicity against human SK-OV-3 cells; format: functional, cell-based
[38] = system: St-4; experiment: Cytotoxicity against human ST4 cells; format: functional, cell-based
[39] = system: HT-29; experiment: Cytotoxicity against human HT29 cells; format: functional, cell-based; settings: Homo sapiens, HT-29
[40] = system: DMS-273; experiment: Cytotoxicity against human DMS273 cells; format: functional, cell-based
[41] = system: NCI-H522; experiment: Cytotoxicity against human NCI-H522 cells; format: functional, cell-based
[42] = Cytotoxicity against human Bel-7721 cells; format: functional, cell-based
[43] = Cytotoxicity against human Anip-973 cells; format: functional, cell-based
[44] = target: Sodium-dependent dopamine transporter (Homo sapiens, UniProt Q01959); experiment: Inhibition of dopamine uptake at DAT
Sequence of Sodium-dependent dopamine transporter (Q01959 whole entry): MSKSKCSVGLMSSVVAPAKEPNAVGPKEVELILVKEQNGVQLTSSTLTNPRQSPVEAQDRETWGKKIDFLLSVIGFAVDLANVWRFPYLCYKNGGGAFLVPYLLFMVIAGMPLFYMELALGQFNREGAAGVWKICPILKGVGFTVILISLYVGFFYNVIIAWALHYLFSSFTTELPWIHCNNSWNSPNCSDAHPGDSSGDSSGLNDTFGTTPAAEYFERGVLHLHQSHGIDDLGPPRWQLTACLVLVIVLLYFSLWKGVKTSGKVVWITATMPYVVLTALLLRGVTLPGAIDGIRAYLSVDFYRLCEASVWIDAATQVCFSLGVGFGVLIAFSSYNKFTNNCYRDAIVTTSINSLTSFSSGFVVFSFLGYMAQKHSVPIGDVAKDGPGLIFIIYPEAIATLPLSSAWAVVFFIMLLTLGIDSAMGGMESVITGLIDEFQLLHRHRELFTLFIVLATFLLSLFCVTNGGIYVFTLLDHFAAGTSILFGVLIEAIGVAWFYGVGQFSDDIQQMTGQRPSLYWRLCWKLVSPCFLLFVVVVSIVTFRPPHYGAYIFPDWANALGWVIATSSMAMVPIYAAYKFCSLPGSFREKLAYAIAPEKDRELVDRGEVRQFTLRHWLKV

[45] = target: Sodium-dependent noradrenaline transporter (Homo sapiens, UniProt P23975); experiment: Inhibition of noradrenaline transporter
Sequence of Sodium-dependent noradrenaline transporter (P23975 whole entry): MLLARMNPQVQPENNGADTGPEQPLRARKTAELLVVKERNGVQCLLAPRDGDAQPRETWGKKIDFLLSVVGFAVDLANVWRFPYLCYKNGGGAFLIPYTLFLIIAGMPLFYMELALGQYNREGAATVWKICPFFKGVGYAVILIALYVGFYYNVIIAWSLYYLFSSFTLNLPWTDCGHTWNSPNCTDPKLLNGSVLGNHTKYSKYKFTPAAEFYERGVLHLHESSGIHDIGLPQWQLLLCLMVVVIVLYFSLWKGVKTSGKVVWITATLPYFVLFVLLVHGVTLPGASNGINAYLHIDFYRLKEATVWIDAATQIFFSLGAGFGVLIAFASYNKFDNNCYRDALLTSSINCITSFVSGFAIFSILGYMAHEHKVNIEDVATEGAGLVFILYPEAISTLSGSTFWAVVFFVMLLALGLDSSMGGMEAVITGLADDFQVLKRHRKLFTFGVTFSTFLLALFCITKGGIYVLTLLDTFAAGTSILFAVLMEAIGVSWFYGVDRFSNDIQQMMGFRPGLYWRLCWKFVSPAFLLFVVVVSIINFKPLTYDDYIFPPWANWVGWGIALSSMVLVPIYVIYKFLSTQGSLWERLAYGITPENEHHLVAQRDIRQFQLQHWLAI

[46] = target: Sodium-dependent serotonin transporter (Homo sapiens, UniProt P31645); experiment: Inhibition of serotonin transporter
Sequence of Sodium-dependent serotonin transporter (P31645 whole entry): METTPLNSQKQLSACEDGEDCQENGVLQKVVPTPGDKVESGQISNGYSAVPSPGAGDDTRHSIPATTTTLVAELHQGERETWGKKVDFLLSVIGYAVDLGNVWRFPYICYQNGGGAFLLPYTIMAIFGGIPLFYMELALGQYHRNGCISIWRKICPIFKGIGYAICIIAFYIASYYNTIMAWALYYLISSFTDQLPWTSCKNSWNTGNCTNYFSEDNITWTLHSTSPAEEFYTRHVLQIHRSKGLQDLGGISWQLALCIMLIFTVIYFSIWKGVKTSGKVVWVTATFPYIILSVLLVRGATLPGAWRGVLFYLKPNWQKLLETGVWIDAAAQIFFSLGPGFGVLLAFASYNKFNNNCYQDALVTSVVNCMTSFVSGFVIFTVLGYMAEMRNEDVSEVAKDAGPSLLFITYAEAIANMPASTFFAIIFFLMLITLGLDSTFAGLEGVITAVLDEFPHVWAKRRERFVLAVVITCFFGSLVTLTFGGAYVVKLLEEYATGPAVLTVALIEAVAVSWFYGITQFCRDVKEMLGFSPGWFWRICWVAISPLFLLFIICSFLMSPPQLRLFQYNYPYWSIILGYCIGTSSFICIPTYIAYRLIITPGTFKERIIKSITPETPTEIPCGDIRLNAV

[47] = Inhibition of L-glutamate transporter
[48] = Inhibition of gamma aminobutyric acid transporter

Compound: CC(C)C(C)/C=C/C(C)[C@H]1CC[C@@H]2[C@]1(C)CC[C@H]1[C@]23C=C[C@]2(C[C@@H](O)CC[C@]12C)OO3 (some centres undefined)
- EC50 [1]: 11 µg/mL (≈ 25.6 µM)
- EC50 [2]: 9.97 µg/mL (≈ 23.3 µM)

Compound: C=C(C)[C@@H](C)/C=C/[C@@H](C)[C@H]1CC[C@@H]2[C@]1(C)CC=C1[C@]23C=C[C@]2(C[C@@H](O)CC[C@]12C)OO3
- IC50 [3]: 0.48 µg/mL (≈ 1.13 µM)
- IC50 [4]: 0.75 µg/mL (≈ 1.77 µM)
- IC50 [5]: 0.54 µg/mL (≈ 1.27 µM)
- IC50 [6]: 0.6 µg/mL (≈ 1.41 µM)
- IC50 [7]: 0.42 µg/mL (≈ 0.989 µM)
- IC50 [8]: 0.57 µg/mL (≈ 1.34 µM)
- IC50 [9]: 0.84 µg/mL (≈ 1.98 µM)
- IC50 [10]: 0.36 µg/mL (≈ 0.848 µM)
- IC50 [11]: 0.63 µg/mL (≈ 1.48 µM)
- IC50 [12]: 0.54 µg/mL (≈ 1.27 µM)
- IC50 [13]: 1.02 µg/mL (≈ 2.4 µM)
- IC50 [14]: 0.72 µg/mL (≈ 1.7 µM)
- IC50 [15]: 0.48 µg/mL (≈ 1.13 µM)
- IC50 [16]: 1.26 µg/mL (≈ 2.97 µM)
- IC50 [17]: 0.6 µg/mL (≈ 1.41 µM)
- IC50 [18]: 0.22 µg/mL (≈ 0.518 µM)
- IC50 [19]: 1.17 µg/mL (≈ 2.76 µM)
- IC50 [20]: 0.96 µg/mL (≈ 2.26 µM)
- IC50 [21]: 0.54 µg/mL (≈ 1.27 µM)
- IC50 [22]: 0.6 µg/mL (≈ 1.41 µM)
- IC50 [23]: 0.75 µg/mL (≈ 1.77 µM)
- IC50 [24]: 0.57 µg/mL (≈ 1.34 µM)
- IC50 [25]: 0.63 µg/mL (≈ 1.48 µM)
- IC50 [26]: 0.19 µg/mL (≈ 0.447 µM)
- IC50 [27]: 0.6 µg/mL (≈ 1.41 µM)
- IC50 [28]: 0.61 µg/mL (≈ 1.44 µM)
- IC50 [29]: 0.54 µg/mL (≈ 1.27 µM)
- IC50 [30]: 0.85 µg/mL (≈ 2 µM)
- IC50 [31]: 0.84 µg/mL (≈ 1.98 µM)
- IC50 [32]: 0.96 µg/mL (≈ 2.26 µM)
- IC50 [33]: 0.48 µg/mL (≈ 1.13 µM)
- IC50 [34]: 0.51 µg/mL (≈ 1.2 µM)
- IC50 [35]: 2.16 µg/mL (≈ 5.09 µM)
- IC50 [36]: 0.54 µg/mL (≈ 1.27 µM)
- IC50 [37]: 0.81 µg/mL (≈ 1.91 µM)
- IC50 [38]: 0.69 µg/mL (≈ 1.62 µM)
- IC50 [39]: 0.57 µg/mL (≈ 1.34 µM)
- IC50 [40]: 0.54 µg/mL (≈ 1.27 µM)
- IC50 [41]: 0.57 µg/mL (≈ 1.34 µM)

Compound: COC1=CC(=O)c2c(O)c(OC)c3c(c2C1=O)-c1c2c(c(O)c(OC)c1[C@@H](C(C)=O)[C@@](C)(O)C3)C(=O)C=C(OC)C2=O [HYPOCRELLIN D]
- IC50 [42]: 1.8 µg/mL (≈ 3.11 µM)
- IC50 [20]: 8.8 µg/mL (≈ 15.2 µM)
- IC50 [43]: 38.4 µg/mL (≈ 66.4 µM)

Compound: CC(C)=CCC[C@]1(C)[C@@H](CC=C(C)C)C[C@@]2(CC=C(C)C)C(=O)[C@@](CC=C(C)C)(CC3=C[C@@H]4[C@@H](C(C)C)CC[C@@](C)(OO)[C@H]4CC3)C(=O)[C@]1(C(=O)C(C)C)C2=O [HYDROPEROXYCADIFORIN]
- IC50 [44]: 64.7 nM
- IC50 [45]: 64.7 nM
- IC50 [46]: 64.7 nM
- IC50 [47]: 0.5 µg/mL (≈ 0.647 µM)
- IC50 [48]: 0.05 µg/mL (≈ 0.0647 µM)
